Patent publication US20150190523A1, “BIOAVAILABILITY OF ORAL METHYLNALTREXONE INCREASES WITH A PHOSPHATIDYLCHOLINE-BASED FORMULATION” (The University of Chicago, priority 2012, published 2015)

Experiments:
[1] = Pharmacokinetics of MNTX in rat plasma after oral gavage (LC/MS/MS); conditions: male, Sprague-Dawley, in vivo, 250 mg/kg; for AUC(0-t) / Cmax / Tmax: rats, 250 mg/kg oral
Description: Animals, MNTX Administration, and Blood Collection.
The experimental protocol was approved by the Institutional Animal Care and Use Committee. Male Sprague-Dawley rats (190-200 g) were obtained from Luye Pharma (Yantai, China) (Wang et al., 2010). Rats were allowed to acclimatize in environmentally controlled quarters (24±2° C. and a 12:12 h light-dark cycle). The rats were fasted for 12 h prior to the experiments.
Ten rats received test compounds via oral gavage. […] Venous blood samples were drawn from the ocular venous plexus at 0, 10, 20, 30, 45, 60, 90, 120, 150, 180, 240, 300, 420 and 540 min. The samples were placed into heparinized tubes and centrifuged at 1500×g for 5 min. The plasma samples were immediately stored in a freezer (−20° C.) for the pending assay.
Plasma Sample Processing.
A […] plasma sample was transferred to a 1.5 mL microcentrifuge tube. Then 0.2 mL of acetonitrile and […] of ketamine hydrochloride (I.S.) were mixed with the plasma sample and vortexed for 5 min before being centrifuged at 1500×g for 5 min. The supernatant was transferred to another tube and dried under a gentle flow of nitrogen. The residue was dissolved in […] of mobile phase, and then centrifuge at 15,000×g for 10 min. Lastly, 5 μL of supernatant was injected into the LC/MS/MS system for analysis.
Determination of MNTX Concentration by LC/MS/MS.
The concentrations of MNTX in rat plasma samples were determined with LC/MS/MS. MNTX plasma levels and the internal standard determined by LC/MS/MS were tested at the time points listed above. The assay was performed using an HPLC system with an Agilent 1100 pump, an Agilent 1100 auto sampler, and a Hanbang C18 column (150 mm×2.1 mm, 5 μm) with a guard column (Wang et al., 2011). For the mobile phase, methanol/water (60/40, containing 0.1% of acetic acid) was pumped at a flow rate of 0.2 mL/min. The samples were stored at 4° C. in the auto sampler before 5 μL was injected into the column. The detector was an API 4000 triple quadruple mass (MS) spectrometer (Applied Biosystems, Foster City, Calif.), and Analyst™ software version 4.1 was used for MS control and spectral processing. Using electrospray ionization (ESI) in positive ion mode, the MS parameters were optimized as follows: heater temperature, 350° C.; ion source voltage, 4000V. Multiple reaction monitoring was used, and the selected single charged precursor-production ion pairs were m/z 356.08→226.95 for MNTX and m/z 237.93→125.05 for ketamine hydrochloride.
Data analysis. Pharmacokinetic data were analyzed by software (Kinetic 4.4; Thermo Electron Co., Waltham. Mass.). All data were expressed as the mean±standard error (S.E.). A one-way ANOVA determined whether the results had statistical significance. The level of statistical significance was set at P<0.05.

[2] = white crystalline powder, typically bromide salt, commercially provided; cited from earlier work

With `C[N+]1(CC2CC2)CCC23c4c5ccc(O)c4OC2C(=O)CCC3(O)C1C5` (centres unmarked) [MNTX, methylnaltrexone bromide] the AUC [1] was 1060 ng·h/mL, the half-life [1] was 4.32 h and the AUC(0-t) ([1]; AUC0-540 min, 0 to 540 min, mean±S.E.) was 1410 ± 448 ng·h/mL. It also gave an AUC(0-t) ([1]; First peak AUC0-150 min, 0 to 150 min, n=5, mean) of 341 ± 94.5 ng·h/mL, a Cmax ([1]; First peak Cmax, first plasma peak, n=5, mean) of 276 ± 102 ng/mL and a Tmax ([1]; First peak Tmax, first plasma peak) of 2 h. The Cmax ([1]; Second peak Cmax, second plasma peak, n=5, mean) was 448 ± 126 ng/mL, the Tmax ([1]; Second peak Tmax, second plasma peak) was 3 h and the Cmax ([1]; peak plasma concentration (Cmax), overall profile, mean±S.E.) was 448 ± 126 ng/mL. The Tmax ([1]; time to peak plasma concentration (Tmax), overall profile) was 3 h and the solubility in water [2] was “freely soluble in water”.
